Measurements published in publication PMC6934184, “Selective DNA-PKcs inhibition extends the therapeutic index of localized radiotherapy and chemotherapy” (The Journal of Clinical Investigation, 2019).

Target: T1, CDK2/cyclin E1 (Homo sapiens, UniProt P24941)
T1 construct: purchased Thermo Fisher Scientific (Life Technologies) SelectScreen
Assay: SelectScreen LanthaScreen
Type: binding
Details: 1 µM
Summary of the method: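 SelectScreen broad panel; activity (Z'LYTE, Adapta) plus binding formats. ATP: Km app for CSF1R Z'LYTE; 10 for CAMK1 Adapta. Readout = % per kinase.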

`CN(C(=O)CN1CCOCC1)c1ccc2sc3c(-c4cccc5c(=O)cc(N6CC7CCC(C6)O7)oc45)cccc3c2c1` [NU5455] was tested, and the “% displacement” value was 2.7%.
